The record followed here is article PMC3130785, “Small Compound 6-O-Angeloylplenolin Induces Mitotic Arrest and Exhibits Therapeutic Potentials in Multiple Myeloma” (PLoS ONE, 2011).

Data set [1] has as its system CD138+ primary cells harvested from 7 MM patients. Description: MTT assay on primary MM cells. The data set is classed as cell-based, human. The text has this: CD138+ cells from 7 MM patients were isolated with informed consent from BM mononuclear cells by using positive immunomagnetic column separation (Miltenyi Biotech, Auburn, CA). The purity of CD138+ cells is above 97% as determined by flow cytometry. BMSCs were generated from a MM patient-derived CD138-negative BM mononuclear cells cultured for 5 weeks. Peripheral blood mononuclear cells (PBMCs) from 5 healthy donors were separated by Ficoll-Hipaque density sedimentation.
U266, RPMI 8226 cells (1×10^4), primary CD138+ cells, PBMCs (5×10^4), and BMSCs (1×10^4) were cultured in 96-well dishes and incubated without or with 6-OAP at indicated concentration for 48 h. MM.1S and MM.1R cells (2×10^4) were seeded into 96-well dishes and pre-cultured for 24 h, then treated with 6-OAP for 48 h. Cell proliferation was determined by MTT assay. Cell viability was estimated by trypan blue dye exclusion.
(Formazan colour is commonly taken as a measure of viable cells.)

Data set [2] has as its system U266 cells. Description: U266 xenograft murine model. It counts as in vivo, BALB/c nude mice. The protocol: All mice used in this study were bred and maintained in a specific pathogen-free environment. BALB/c nude mice (6 to 7 weeks old) were obtained from the Shanghai Laboratory Animal Center (Shanghai, China), and maintained and monitored in a specific pathogen-free environment. All animal studies were conducted according to protocols approved by the Animal Ethics Committee of our institute. The mice were injected subcutaneously with 1×10^7 U266 cells in 100 µL RPMI-1640 media into the right flank. Treatments were started when the tumors reached a palpable size. The control group received vehicle (0.8% DMSO/18% Cremophor/8% Ethanol in normal saline), while the other two groups received intraperitoneally injection of 6-OAP (50 or 75 mg/kg per day, five times a week for 4 weeks). Caliper measurements of the longest perpendicular tumor diameters were performed twice a week to estimate the tumor volume, using the following formula: 4π/3× (width/2)^2× (length/2), representing the 3-dimensional volume of an ellipse. Animals were sacrificed when tumors reached 2 cm or if the mice appeared moribund to prevent unnecessary morbidity to the mice. At the time of the animals' death, tumors were excised; cells were separated and subjected to immunofluorescence analysis or lyzed for Western blotting.
Figure 6 In vivo therapeutic efficacy of 6-OAP on human MM murine model. Nude mice were given subcutaneous inoculations in the right flank with 1×10^7 U266 cells. When the tumors reached a palpable size, the mice were treated intraperitoneally with vehicle or 6-OAP (50 or 75 mg/kg, 5 times a week for 4 weeks). […] (C) Survival curve of control and 6-OAP-treated mice. […] (E) Tumor samples were harvested from mice treated with vehicle or 50 mg/kg 6-OAP and subjected to immunofluorescence analysis using an anti-α-tubulin antibody and DAPI. (F) Tumor tissues were harvested from mice treated with vehicle or 50 mg/kg 6-OAP, whole-tissue lysates were subjected to Western blotting using an anti-cyclin B1 antibody. (G) The concentration-time profiles of 6-OAP after intravenous (30 mg/kg) or intraperitoneal (40 mg/kg) injection of 6-OAP in Sprague-Dawley rats.

Molecules are shown by their SMILES.

Consider `CC=C(C)C(=O)OC1C2C(CC(C)C3C=CC(=O)C31C)OC(=O)C2C` (stereo not drawn) [6-OAP, 6-O-angeloylplenolin], for which, in data set [1], the “cell growth of CD138+ primary cells” value is reported as “suppressed cell growth”. For the same molecule, the “cyclin B1 in tumor tissues” value in data set [2] (50 mg/kg, Western blotting, vs control mice) is on record as “accumulated”. The “spindle formation in tumor samples” value in data set [2] (50 mg/kg, immunofluorescence, anti-α-tubulin) was “apparent spindle formation was detected”. In addition, in data set [2] (50 and 75 mg/kg ip, five times a week for four weeks, vs vehicle, P<.0001), the tumor growth entry is “significantly inhibited tumor growth”. Moreover, in data set [2] (50 or 75 mg/kg ip, 4 weeks), the “body weight of mice” value is “did not reduce body weight”. Further, the survival entry in data set [2] (50 or 75 mg/kg ip, vs vehicle control) is “prolonged”.
